Read-outs that look alike come from different tables or passages of the source.
Assays:
Assay type in all cases: cell-based
[1] = test system: human non-small cell lung cancer cell strain A549; assay: MTT proliferation inhibition, A549; conditions: Homo sapiens, A549 cells, 48 h, read-out: Inhibitory activity (IC50) against proliferation, A549
Procedure: (§1) The anti-tumor activity of the compounds of the present invention was determined by the method of methyl thiazolyl tetrazolium (MTT), Bardoxolone Methyl (CDDO-Me) being selected as a positive control medicament.
(§2) Instruments: ultra-clean bench (SW-CJ-1FD, AIRTECH, Suzhou Antai Airtech Co. Ltd.), constant-temperature CO2 incubator (3111, Thermo, USA), inverted biomicroscope (IX71, OLYMPUS, Japan), ELISA microplate reader (Model 680, BIO-RAD, USA), platform shaker (Kylin-bell lab Instruments), autoclave (YXO.SG4I.280, Shanghai Huaxian), and centrifuge (SIGMA).
(§3) Reagents: DMEM (GIBCO), fetal bovine serum (GIBCO), trypsin (SIGMA), and DMSO (SIGMA).
(§4) Cell strains: human non-small cell lung cancer cell strain A549, human liver cancer cell strain HepG2, human breast cancer cell strain MCF-7, human renal tubular epithelial cells HK-2, rat embryonic cardiomyocytes H9C2 (all provided by Jiangsu KeyGEN BioTECH Co., Ltd.).
(§5) Methods: the cryopreserved cell strains were resuscitated and cultured in a CO2 incubator at a constant temperature of 37° C. with liquid being changed once daily. Plating was carried out when the cell strains were in a good state in the exponential phase. 1 mL of 0.25% trypsin solution was added for digestion for 1-2 min. The cell status was observed under the microscope, and when the adherent cells became round and shrunk, the digestion solution was aspirated and 1-2 mL of a DMEM medium containing 10% fetal bovine serum was added to obtain a cell suspension, on which a cell count was performed. The amount of required cell suspension was calculated on the basis of 5×10^4 cells per well and the total number of wells. The cell suspension was inoculated on a 96-well plate at 100 μL/well, the surroundings being blocked with PBS, followed by incubation in a CO2 incubator at a constant temperature of 37° C. for 24 h.
(§6) The test medicament, positive control medicament CDDO-Me, and blank control group DMSO were prepared in DMEM media to a final concentration of 5 μM/well, each medicament being placed in 3 replicate wells, followed by incubation for 48 h. The MTT reagent was added to the 96-well plate at 10 μL/well to further incubate for 4 h. The medium in the plate was aspirated and 100 μL of DMSO was added to each well, followed by shaking on the platform shaker for 10 min such that the crystals were dissolved. The absorbance of each well was examined by the ELISA microplate reader at a wavelength of 570 nm, and the cell inhibition rate was calculated according to the formula hereinafter. The mean value of three preliminary screening results was taken as the final inhibition rate thereof.
(§7) Cell inhibition rate (%)=[(OD value of blank control−OD value of dosing cohort)/OD value of blank control group]×100%

[2] = test system: human breast cancer cell strain MCF-7; assay: MTT proliferation inhibition, MCF-7; conditions: Homo sapiens, MCF7, MCF-7 cells, 48 h, read-out: Inhibitory activity (IC50) against proliferation, MCF-7
Procedure: as §1, §2, §3, §4, §5, §6, §7

[3] = test system: human liver cancer cell strain HepG2; assay: MTT proliferation inhibition, HepG2; conditions: Homo sapiens, HepG2 cells, 48 h, read-out: Inhibitory activity (IC50) against proliferation, HepG2
Procedure: as §1, §2, §3, §4, §5
The MTT reagent was added to the 96-well plate at 10 μL/well to further incubate for 4 h. The medium in the plate was aspirated and 100 μL of DMSO was added to each well, followed by shaking on the platform shaker for 10 min such that the crystals were dissolved. […] The mean value of three preliminary screening results was taken as the final inhibition rate thereof.
as §7

[4] = test system: human renal tubular epithelial cells HK-2; assay: MTT proliferation inhibition / toxicity, HK-2; conditions: for IC50: Homo sapiens, HK-2 cells, MTT, 48 h, read-out: Inhibitory activity (IC50) against proliferation, HK-2; for toxicity to human renal tubular epithelial cells HK-2: statement in words
Procedure: as §1, §2, §3, §4, §5, §6, §7

[5] = test system: rat embryonic cardiomyocytes H9C2; assay: MTT proliferation inhibition / toxicity, H9C2; conditions: Rattus norvegicus, H9C2 cardiomyocytes, MTT, 48 h, read-out: Inhibitory activity (IC50) against proliferation, H9C2
Procedure: as §1, §2, §3, §4, §5, §6, §7

SMILES | IC50 [1] [nM] | IC50 [2] [nM] | IC50 [3] [nM] | IC50 [4] [nM] | toxicity to human renal tubular epithelial cells HK-2 [4] | IC50 [5] [nM] | IC50 ([5]; H9c2, 48 h) [nM]
CC1(C)CC[C@]2(NC(=O)/C=C/c3ccccc3)CC[C@]3(C)[C@H](C(=O)C=C4[C@@]5(C)C=C(C#N)C(=O)C(C)(C)[C@@H]5CC[C@]43C)[C@@H]2C1 [Compound I-1] | 599 ± 377 | 574 ± 21 | 409 ± 16 | 799 ± 92 | lower toxicity | 251 ± 8 | –
Cc1ccc(/C=C/C(=O)N[C@]23CCC(C)(C)C[C@H]2[C@H]2C(=O)C=C4[C@@]5(C)C=C(C#N)C(=O)C(C)(C)[C@@H]5CC[C@@]4(C)[C@]2(C)CC3)cc1 [Compound I-2] | 549 ± 10 | 547 ± 74 | 772 ± 63 | 1390 ± 32 | lower toxicity | 218 ± 7 | –
COc1ccc(/C=C/C(=O)N[C@]23CCC(C)(C)C[C@H]2[C@H]2C(=O)C=C4[C@@]5(C)C=C(C#N)C(=O)C(C)(C)[C@@H]5CC[C@@]4(C)[C@]2(C)CC3)cc1 [Compound I-3] | 367 ± 18 | 375 ± 38 | 527 ± 133 | 700 ± 16 | lower toxicity | 174 ± 5 | –
CC1(C)CC[C@]2(NC(=O)/C=C/c3ccc(C(F)(F)F)cc3)CC[C@]3(C)[C@H](C(=O)C=C4[C@@]5(C)C=C(C#N)C(=O)C(C)(C)[C@@H]5CC[C@]43C)[C@@H]2C1 [Compound I-4] | 402 ± 20 | 562 ± 132 | 412 ± 6 | 516 ± 72 | lower toxicity | 215 ± 4 | –
CC1(C)CC[C@]2(NC(=O)/C=C/c3ccc(F)cc3)CC[C@]3(C)[C@H](C(=O)C=C4[C@@]5(C)C=C(C#N)C(=O)C(C)(C)[C@@H]5CC[C@]43C)[C@@H]2C1 [Compound I-5] | 788 ± 345 | 1310 ± 127 | 785 ± 96 | 2825 ± 4 | lower toxicity | 316 ± 1 | –
CC1(C)CC[C@]2(NC(=O)/C=C/c3ccc(Cl)cc3)CC[C@]3(C)[C@H](C(=O)C=C4[C@@]5(C)C=C(C#N)C(=O)C(C)(C)[C@@H]5CC[C@]43C)[C@@H]2C1 [Compound I-6] | 588 ± 36 | 738 ± 9 | 482 ± 2 | 727 ± 430 | lower toxicity | 373 ± 2 | –
Cc1ccc(/C=C(\C#N)C(=O)N[C@]23CCC(C)(C)C[C@H]2[C@H]2C(=O)C=C4[C@@]5(C)C=C(C#N)C(=O)C(C)(C)[C@@H]5CC[C@@]4(C)[C@]2(C)CC3)cc1 [Compound I-8] | 329 ± 47 | 789 ± 52 | 563 ± 23 | 423 ± 30 | lower toxicity | 274 ± 2 | –
COc1ccc(/C=C(\C#N)C(=O)N[C@]23CCC(C)(C)C[C@H]2[C@H]2C(=O)C=C4[C@@]5(C)C=C(C#N)C(=O)C(C)(C)[C@@H]5CC[C@@]4(C)[C@]2(C)CC3)cc1 [Compound I-9] | 624 ± 111 | 1130 ± 40 | 816 ± 14 | 748 ± 341 | lower toxicity | 417 ± 19 | –
CC1(C)CC[C@]2(NC(=O)/C(C#N)=C/c3ccc(C(F)(F)F)cc3)CC[C@]3(C)[C@H](C(=O)C=C4[C@@]5(C)C=C(C#N)C(=O)C(C)(C)[C@@H]5CC[C@]43C)[C@@H]2C1 [Compound I-10] | 362 ± 12 | 460 ± 105 | 297 ± 11 | 234 ± 117 | – | 233 ± 10 | –
CC1(C)CC[C@]2(NC(=O)/C(C#N)=C/c3ccc(F)cc3)CC[C@]3(C)[C@H](C(=O)C=C4[C@@]5(C)C=C(C#N)C(=O)C(C)(C)[C@@H]5CC[C@]43C)[C@@H]2C1 [Compound I-11] | 609 ± 67 | 424 ± 129 | 337 ± 12 | 308 ± 71 | – | 52 ± 1 | –
CC1(C)CC[C@]2(NC(=O)/C=C(\C#N)c3ccccc3)CC[C@]3(C)[C@H](C(=O)C=C4[C@@]5(C)C=C(C#N)C(=O)C(C)(C)[C@@H]5CC[C@]43C)[C@@H]2C1 [Compound I-13] | 414 ± 17 | 375 ± 130 | 328 ± 13 | 473 ± 630 | lower toxicity | – | 7 ± 9
Cc1ccc(/C(C#N)=C/C(=O)N[C@]23CCC(C)(C)C[C@H]2[C@H]2C(=O)C=C4[C@@]5(C)C=C(C#N)C(=O)C(C)(C)[C@@H]5CC[C@@]4(C)[C@]2(C)CC3)cc1 [Compound I-14] | 337 ± 15 | 432 ± 188 | 313 ± 35 | 939 ± 62 | lower toxicity | 14 ± 1 | –
COc1ccc(/C(C#N)=C/C(=O)N[C@]23CCC(C)(C)C[C@H]2[C@H]2C(=O)C=C4[C@@]5(C)C=C(C#N)C(=O)C(C)(C)[C@@H]5CC[C@@]4(C)[C@]2(C)CC3)cc1 [Compound I-15] | 658 ± 58 | 551 ± 140 | 524 ± 32 | 350 ± 37 | – | 146 ± 12 | –
CC1(C)CC[C@]2(NC(=O)/C=C(\C#N)c3ccc(F)cc3)CC[C@]3(C)[C@H](C(=O)C=C4[C@@]5(C)C=C(C#N)C(=O)C(C)(C)[C@@H]5CC[C@]43C)[C@@H]2C1 [Compound I-17] | 345 ± 174 | 238 ± 8 | 114 ± 4 | 229 ± 126 | – | – | –
CC1(C)CC[C@]2(NC(=O)/C=C(\C#N)c3ccc(Cl)cc3)CC[C@]3(C)[C@H](C(=O)C=C4[C@@]5(C)C=C(C#N)C(=O)C(C)(C)[C@@H]5CC[C@]43C)[C@@H]2C1 [Compound I-18] | 300 ± 13 | 500 ± 170 | 406 ± 17 | 647 ± 21 | lower toxicity | – | –

Reference: US20230023332A1, “OLEAN-PHENYLACRYLAMIDE DERIVATIVE, METHOD FOR PREPARING SAME, AND USE THEREOF” (Lunan Pharmaceutical Group Corporation, priority 2019, published 2023)
